The subject of experiment [1] is A549. As to the kind of experiment: Antiproliferative activity against human A549 cells assessed as inhibition of cell growth incubated for 48 hrs by MTT assay. Format: functional, cell-based. The note with it: A549, 48 h. In general terms: Formazan colour is commonly taken as a measure of viable cells.
The test system of experiment [2] is HeLa. As to the kind of experiment: Antiproliferative activity against human HeLa cells assessed as inhibition of cell growth incubated for 48 hrs by MTT assay. Type of experiment: functional, cell-based.
Experiment [3] has as its system MDA-MB-231. As to the kind of experiment: Antiproliferative activity against human MDA-MB-231 cells assessed as inhibition of cell growth at 20 uM incubated for 48 hrs by MTT assay. Format: functional.
In experiment [4] the test system is MDA-MB-231. As to the kind of experiment: Antiproliferative activity against human MDA-MB-231 cells assessed as inhibition of cell growth incubated for 48 hrs by MTT assay. The settings on record: MDA-MB-231, 48 h. Type of experiment: functional, cell-based.
For experiment [5], the system named is HeLa. As to the kind of experiment: Antiproliferative activity against human HeLa cells assessed as inhibition of cell growth at 20 uM incubated for 48 hrs by MTT assay. Type of experiment: functional.
The test system of experiment [6] is A-375. As to the kind of experiment: Antiproliferative activity against human A-375 cells assessed as inhibition of cell growth incubated for 48 hrs by MTT assay. Type of experiment: functional, cell-based. The settings on record: A-375, 48 h.
Experiment [7] concerns A-375. As to the kind of experiment: Antiproliferative activity against human A-375 cells assessed as inhibition of cell growth at 20 uM incubated for 48 hrs by MTT assay. Format: functional.
Experiment [8] relates to A549. As to the kind of experiment: Antiproliferative activity against human A549 cells assessed as inhibition of cell growth at 20 uM incubated for 48 hrs by MTT assay. Type of experiment: functional.
The subject of experiment [9] is HCT-116. As to the kind of experiment: Antiproliferative activity against human HCT-116 cells assessed as inhibition of cell growth incubated for 48 hrs by MTT assay. Type of experiment: functional, cell-based. The note with it: HCT-116, 48 h.
The subject of experiment [10] is HCT-116. As to the kind of experiment: Antiproliferative activity against human HCT-116 cells assessed as inhibition of cell growth at 20 uM incubated for 48 hrs by MTT assay. Type of experiment: functional.
The subject of experiment [11] is HCT-116. As to the kind of experiment: Inhibition of cell migration in human HCT-116 cells at 25 uM incubated for 48 hrs by wound healing assay (reference value: 42.8 %). Type of experiment: functional.
In experiment [12] the test system is HCT-116. As to the kind of experiment: Inhibition of cell migration in human HCT-116 cells at 25 uM incubated for 24 hrs by wound healing assay (reference value: 32.0 %). Type of experiment: functional.
Another experiment concerns L02. As to the kind of experiment: Antiproliferative activity against human L02 cells assessed as inhibition of cell growth […] incubated for 48 hrs by MTT assay. Type of experiment: functional, cell-based. The note with it: L02, 48 h.

Broadly, the IC50 is the concentration at which inhibition is half-maximal. As a reminder, the inhibition is the drop in the measured response relative to a control, in per cent. Turning to `NC(=O)c1ccccc1NCc1ccc(NC(=O)Nc2cccc(Br)c2)cc1`, the IC50 with A549 [1] amounted to 11.8 µM; in the experiment on HeLa [2] it was 14 µM; in the experiment on MDA-MB-231 [4], 14.4 µM; with A-375 [6] it was 19.7 µM; in the experiment with HCT-116 [9], 10.4 µM. In addition, the inhibition at 20 µM is 67.2% in the experiment on MDA-MB-231 [3]; 71.5% in the experiment with HeLa [5]; 67.2% with A-375 [7]; 82.2% in the experiment with A549 [8]; 72.5% with HCT-116 [10].
As to `NC(=O)c1ccccc1NCc1ccc(NC(=O)Nc2cccc(Cl)c2)cc1`, the concentration for half-maximal inhibition (IC50) in the experiment on A549 [1] stood at 19.9 µM; with HeLa [2], 12.1 µM; in the experiment with MDA-MB-231 [4] it was 20.5 µM; in the experiment on A-375 [6] it was 25.4 µM; in the experiment with HCT-116 [9] it was 13.1 µM. For the same compound, the inhibition at 20 µM with MDA-MB-231 [3] was determined as 47.3%; with HeLa [5] it was 76.5%; with A-375 [7], 58.3%; in the experiment with A549 [8] it was 52.6%; in the experiment with HCT-116 [10] it was 63.6%.
For the compound `COc1cccc(NC(=O)Nc2ccc(CNc3ccccc3C(N)=O)cc2)c1`, the IC50 in the experiment with A549 [1] is 41.5 µM; with HeLa [2], 21.9 µM; with MDA-MB-231 [4] it was 21.6 µM; with A-375 [6] it was 29.8 µM; in the experiment on HCT-116 [9], 14.2 µM. For the same compound, the inhibition at 20 µM with MDA-MB-231 [3] turned out to be 50%; with HeLa [5], 66.8%; with A-375 [7], 50.8%; in the experiment on A549 [8], 59.3%; with HCT-116 [10], 82.3%.
Consider `O=C(c1cc(Cc2n[nH]c(=O)c3ccccc23)ccc1F)N1CCN(C(=O)C2CC2)CC1` [OLAPARIB], for which the IC50 was 31.6 µM in the experiment with A549 [1]; 27.7 µM in the experiment on HeLa [2]; 24.8 µM in the experiment on MDA-MB-231 [4]; 12.7 µM in the experiment with A-375 [6]; 60.7 µM in the experiment on L02; 27.3 µM in the experiment with HCT-116 [9]. Besides, the inhibition at 25 µM came to 33.1% with HCT-116 [11] and 25.8% with HCT-116 [12].
On to `NC(=O)c1ccccc1OCc1cccc(NC(=O)Nc2cccc(Cl)c2)c1`, for which the 50% inhibitory concentration (IC50) was 12.4 µM in the experiment with A549 [1]; 12.7 µM with HeLa [2]; 21.2 µM in the experiment on MDA-MB-231 [4]; 28.5 µM in the experiment on A-375 [6]; 12.3 µM with HCT-116 [9]. Moreover, the inhibition at 20 µM with MDA-MB-231 [3] is 65.2%; in the experiment with HeLa [5], 77.6%; in the experiment with A-375 [7] it was 63.1%; in the experiment with A549 [8], 85%; with HCT-116 [10], 83.3%.

The values are drawn from ChEMBL document CHEMBL5352439, “Design, synthesis, biological evaluation and molecular docking study of novel urea-based benzamide derivatives as potent poly(ADP-ribose) polymerase-1 (PARP-1) inhibitors” (Eur J Med Chem, 2022).
